Data from PubChem BioAssay AID180 (DTP/NCI, 2004).
“And” between values parts separate entries of the source, which are not always exact repeats. Identical values can stand only once.

Tested on: BDF1 mice, Adenocarcinoma 755 s.c., tumor weight T/C
Test: NCI In Vivo Anticancer Drug Screen. Data for tumor model Adenocarcinoma 755 (subcutaneous) in B6D2F1 (BDF1) mice
Conditions: endpoint: mean tumor weight, higher = larger tumour
Procedure, shortened: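 Compound activity was tested in mice carrying transplanted tumors. Survival or tumor size was measured, and each value is the treated-group measurement divided by that of the vehicle-treated control group (T/C).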

[1] = dose: 5.0 mg/kg/injection, schedule: Q01DX011 (ip), vehicle: methylcellulose (MC)
[2] = dose: 6.0 mg/kg/injection, schedule: Q01DX011 (ip), vehicle: methylcellulose (MC)

`CCCn1cnc2c(SCc3ccc(Br)cc3)nc(N)nc21` was tested, and the T/C (dose: 7.8 mg/kg/injection, schedule: Q01DX011 (ip), vehicle: methylcellulose (MC)) was 58 % of control, the T/C (dose: 15.6 mg/kg/injection, schedule: Q01DX011 (ip), vehicle: methylcellulose (MC)) was 57 % of control and the T/C (dose: 31.25 mg/kg/injection, schedule: Q01DX011 (ip), vehicle: methylcellulose (MC)) was 20 % of control. For the same molecule, the T/C (dose: 62.5 mg/kg/injection, schedule: Q01DX011 (ip), vehicle: methylcellulose (MC)) was 21 % of control and 23 % of control.
With `C[C@H](N)C(=O)N[C@@H]1[C@H]2C(=C(O)C[C@@H](O)[C@@H]2O)C(=O)O[C@@H]1C` the T/C (dose: 250.0 mg/kg/injection, schedule: Q01DX011 (ip), vehicle: saline) was 79 % of control and the T/C (dose: 500.0 mg/kg/injection, schedule: Q01DX011 (ip), vehicle: saline) was 64 % of control.
`Cc1ccc(CSc2nc(N)nc3c2ncn3C2OC(CO)C(O)C2O)cc1` (configuration not stated) was tested, and the T/C (dose: 12.5 mg/kg/injection, schedule: Q01DX011 (ip), vehicle: methylcellulose (MC)) was 57 % of control, the T/C (dose: 25.0 mg/kg/injection, schedule: Q01DX011 (ip), vehicle: methylcellulose (MC)) was 60 % of control and the T/C (dose: 50.0 mg/kg/injection, schedule: Q01DX011 (ip), vehicle: methylcellulose (MC)) was 25 % of control and 41 % of control.
In the case of `O=c1[nH]c(Br)nc2nc[nH]c12`, the T/C (dose: 30.0 mg/kg/injection, schedule: Q01DX011 (ip), vehicle: carboxymethylcellulose (CMC)) is reported as 99 % of control, the T/C (dose: 60.0 mg/kg/injection, schedule: Q01DX011 (ip), vehicle: carboxymethylcellulose (CMC)) is reported as 98 % of control and the T/C (dose: 120.0 mg/kg/injection, schedule: Q01DX011 (ip), vehicle: carboxymethylcellulose (CMC)) is reported as 81 % of control. The T/C (dose: 240.0 mg/kg/injection, schedule: Q01DX011 (ip), vehicle: carboxymethylcellulose (CMC)) was 92 % of control.
With `CCC(=O)O[C@H]1CC[C@H]2[C@@H]3CCC4=CC(=O)CC[C@]4(C)[C@H]3CC[C@]12C` the T/C (dose: 125.0 mg/kg/injection, schedule: Q01DX011 (sc), vehicle: steriod suspending solution) was 101 % of control and 104 % of control, the T/C (dose: 400.0 mg/kg/injection, schedule: Q01DX011 (sc), vehicle: steriod suspending solution) was 69 % of control and the T/C (dose: 666.66 mg/kg/injection, schedule: Q01DX011 (sc), vehicle: steriod suspending solution) was 61 % of control.
With `NS(=O)(=O)c1ncc2[nH]cnc2n1` the T/C (dose: 225.0 mg/kg/injection, schedule: Q01DX011 (ip), vehicle: carboxymethylcellulose (CMC)) was 111 % of control and the T/C (dose: 450.0 mg/kg/injection, schedule: Q01DX011 (ip), vehicle: carboxymethylcellulose (CMC)) was 82 % of control.
`CCCCNc1cc(=O)[nH]c(N)n1` was tested, and the T/C (dose: 55.0 mg/kg/injection, schedule: Q01DX011 (ip), vehicle: methylcellulose (MC)) was 53 % of control.
`CCC(c1ccc(O)cc1)C(CC)c1ccc(OC)cc1` (configuration not stated) was tested, and the T/C (dose: 5.0 mg/kg/injection, schedule: Q01DX011 (sc), vehicle: steriod suspending solution) was 57 % of control, the T/C (dose: 10.0 mg/kg/injection, schedule: Q01DX011 (sc), vehicle: steriod suspending solution) was 56 % of control and the T/C (dose: 20.0 mg/kg/injection, schedule: Q01DX011 (sc), vehicle: steriod suspending solution) was 33 % of control. The T/C (dose: 31.0 mg/kg/injection, schedule: Q01DX011 (ip), vehicle: olive oil, sesame oil, peanut oil) was 33 % of control, the T/C (dose: 62.5 mg/kg/injection, schedule: Q01DX011 (ip), vehicle: olive oil, sesame oil, peanut oil) was 27 % of control and the T/C (dose: 125.0 mg/kg/injection, schedule: Q01DX011 (ip), vehicle: olive oil, sesame oil, peanut oil) was 45 % of control. The T/C (dose: 250.0 mg/kg/injection, schedule: Q01DX011 (ip), vehicle: olive oil, sesame oil, peanut oil) was 33 % of control.
For `Cn1c(N)nc2nc[nH]c2c1=S`, the T/C (dose: 4.0 mg/kg/injection, schedule: Q01DX011 (oral), vehicle: carboxymethylcellulose (CMC)) was 114 % of control, the T/C (dose: 4.0 mg/kg/injection, schedule: Q01DX011 (oral), vehicle: saline) was 91 % of control and the T/C [1] was 4 % of control. For the same molecule, the T/C [2] was 5 % of control, the T/C (dose: 7.0 mg/kg/injection, schedule: Q01DX011 (ip), vehicle: methylcellulose (MC)) was 4 % of control and the T/C (dose: 8.0 mg/kg/injection, schedule: Q01DX011 (oral), vehicle: carboxymethylcellulose (CMC)) was 112 % of control. For the same molecule, the T/C (dose: 8.0 mg/kg/injection, schedule: Q01DX011 (oral), vehicle: saline) was 92 % of control, the T/C (dose: 16.0 mg/kg/injection, schedule: Q01DX011 (oral), vehicle: carboxymethylcellulose (CMC)) was 119 % of control and the T/C (dose: 16.0 mg/kg/injection, schedule: Q01DX011 (oral), vehicle: saline) was 80 % of control. The T/C (dose: 32.0 mg/kg/injection, schedule: Q01DX011 (oral), vehicle: carboxymethylcellulose (CMC)) was 203 % of control, the T/C (dose: 32.0 mg/kg/injection, schedule: Q01DX011 (oral), vehicle: saline) was 86 % of control and the T/C (dose: 64.0 mg/kg/injection, schedule: Q01DX011 (oral), vehicle: carboxymethylcellulose (CMC)) was 151 % of control. For the same molecule, the T/C (dose: 64.0 mg/kg/injection, schedule: Q01DX011 (oral), vehicle: saline) was 120 % of control, the T/C (dose: 500.0 mg/kg/injection, schedule: Q01DX011 (oral), vehicle: carboxymethylcellulose (CMC)) was 85 % of control and the T/C (dose: 750.0 mg/kg/injection, schedule: Q01DX011 (oral), vehicle: carboxymethylcellulose (CMC)) was 90 % of control. The T/C (dose: 310.0 micrograms/kg/injection, schedule: Q01DX011 (ip), vehicle: methylcellulose (MC)) was 32 % of control, the T/C (dose: 625.0 micrograms/kg/injection, schedule: Q01DX011 (ip), vehicle: methylcellulose (MC)) was 64 % of control and the T/C (dose: 1000.0 micrograms/kg/injection, schedule: Q01DX011 (ip), vehicle: methylcellulose (MC)) was 3 % of control. The T/C (dose: 1250.0 micrograms/kg/injection, schedule: Q01DX011 (ip), vehicle: methylcellulose (MC)) was 18 % of control, the T/C (dose: 2000.0 micrograms/kg/injection, schedule: Q01DX011 (ip), vehicle: methylcellulose (MC)) was 3 % of control and the T/C (dose: 2500.0 micrograms/kg/injection, schedule: Q01DX011 (ip), vehicle: methylcellulose (MC)) was 4 % of control. The T/C (dose: 5000.0 micrograms/kg/injection, schedule: Q01DX011 (ip), vehicle: methylcellulose (MC)) was 4 % of control and the T/C (dose: 7500.0 micrograms/kg/injection, schedule: Q01DX011 (ip), vehicle: methylcellulose (MC)) was 2 % of control.
`CCN(CC)c1ccc2cc3ccc(=[N+](CC)CC)cc-3oc2c1` was tested, and the T/C (dose: 0.64 mg/kg/injection, schedule: Q01DX011 (ip), vehicle: carboxymethylcellulose (CMC)) was 33 % of control, the T/C (dose: 0.66 mg/kg/injection, schedule: Q01DX011 (ip), vehicle: carboxymethylcellulose (CMC)) was 47 % of control and the T/C (dose: 1.27 mg/kg/injection, schedule: Q01DX011 (ip), vehicle: carboxymethylcellulose (CMC)) was 119 % of control. The T/C (dose: 1.32 mg/kg/injection, schedule: Q01DX011 (ip), vehicle: carboxymethylcellulose (CMC)) was 90 % of control, the T/C (dose: 1.7 mg/kg/injection, schedule: Q01DX011 (ip), vehicle: carboxymethylcellulose (CMC)) was 91 % of control and the T/C (dose: 2.64 mg/kg/injection, schedule: Q01DX011 (ip), vehicle: carboxymethylcellulose (CMC)) was 81 % of control. For the same molecule, the T/C (dose: 4.0 mg/kg/injection, schedule: Q01DX011 (ip), vehicle: other) was 115 % of control, the T/C [1] was 70 % of control and the T/C (dose: 5.1 mg/kg/injection, schedule: Q01DX011 (ip), vehicle: carboxymethylcellulose (CMC)) was 53 % of control. For the same molecule, the T/C (dose: 5.28 mg/kg/injection, schedule: Q01DX011 (ip), vehicle: carboxymethylcellulose (CMC)) was 100 % of control, the T/C (dose: 8.0 mg/kg/injection, schedule: Q01DX011 (ip), vehicle: other) was 114 % of control and the T/C (dose: 12.0 mg/kg/injection, schedule: Q01DX011 (ip), vehicle: other) was 90 % of control. For the same molecule, the T/C (dose: 15.0 mg/kg/injection, schedule: Q01DX011 (ip), vehicle: methylcellulose (MC)) was 75 % of control.
`NC(=O)c1ccccc1Nc1ccc([N+](=O)[O-])cc1[N+](=O)[O-]` was tested, and the T/C (dose: 34.0 mg/kg/injection, schedule: Q01DX011 (ip), vehicle: carboxymethylcellulose (CMC)) was 102 % of control and the T/C (dose: 100.0 mg/kg/injection, schedule: Q01DX011 (ip), vehicle: carboxymethylcellulose (CMC)) was 115 % of control.
For `CCOC(C)C(/C=N/NC(N)=S)=NNC(N)=S` (configuration not stated), the T/C (dose: 15.0 mg/kg/injection, schedule: Q01DX011 (ip), vehicle: saline) was 49 % of control, the T/C (dose: 30.0 mg/kg/injection, schedule: Q01DX011 (ip), vehicle: saline) was 109 % of control and the T/C (dose: 60.0 mg/kg/injection, schedule: Q01DX011 (ip), vehicle: saline) was 117 % of control. The T/C (dose: 120.0 mg/kg/injection, schedule: Q01DX011 (ip), vehicle: saline) was 71 % of control.
`C[C@]12C=CC(=O)C=C1[C@@H](F)C[C@@H]1[C@@H]2[C@@H](O)C[C@@]2(C)[C@H]1CC[C@]2(O)C(=O)CO` was tested, and the T/C (dose: 3.0 mg/kg/injection, schedule: Q01DX011 (ip), vehicle: methylcellulose (MC)) was 63 % of control and 64 % of control, the T/C (dose: 3.0 mg/kg/injection, schedule: Q01DX011 (sc), vehicle: steriod suspending solution) was 51 % of control and the T/C [2] was 41 % of control and 43 % of control. The T/C (dose: 6.0 mg/kg/injection, schedule: Q01DX011 (sc), vehicle: steriod suspending solution) was 53 % of control, the T/C (dose: 12.0 mg/kg/injection, schedule: Q01DX011 (ip), vehicle: methylcellulose (MC)) was 37 % of control and 41 % of control and the T/C (dose: 12.0 mg/kg/injection, schedule: Q01DX011 (sc), vehicle: steriod suspending solution) was 46 % of control. For the same molecule, the T/C (dose: 24.0 mg/kg/injection, schedule: Q01DX011 (ip), vehicle: methylcellulose (MC)) was 30 % of control and 40 % of control, the T/C (dose: 24.0 mg/kg/injection, schedule: Q01DX011 (sc), vehicle: steriod suspending solution) was 30 % of control and the T/C (dose: 48.0 mg/kg/injection, schedule: Q01DX011 (sc), vehicle: steriod suspending solution) was 23 % of control.
